Results as given in ChEMBL document CHEMBL5370531, “Design, synthesis and pharmacological evaluation of 2,3-dihydrobenzofuran IRAK4 inhibitors for the treatment of diffuse large B-cell lymphoma” (Eur J Med Chem, 2023).
The source made the active and inactive calls. No cut-off for these calls is given here.

Experiments:
[1] = test system: OCI-Ly10; assay: Synergistic antiproliferative activity against human OCILY10 cells harboring MYD88 L265P assessed as inhibition of cell growth at 200 nM incubated for 72 hrs in presence of BTK inhibitor, ibrutinib at 3.1 nM by CCK-8 assay (reference value: 26.07 %); assay type: functional
[2] = test system: OCI-Ly10; assay: Induction of apoptosis in human OCILY10 cells assessed as early apoptotic cells at 0.2 uM incubated for 24 hrs by Annexin V-FITC/PI staining based flow cytometry (reference value: 10 %); assay type: functional
[3] = test system: OCI-Ly10; assay: Induction of apoptosis in human OCILY10 cells assessed as early apoptotic cells at 1 uM incubated for 48 hrs by Annexin V-FITC/PI staining based flow cytometry (reference value: 5.4 %); assay type: functional
[4] = test system: OCI-Ly10; assay: Cytotoxicity against human OCILY10 cells assessed as inhibition of cell proliferation incubated for 72 hrs by CCK-8 assay; assay type: functional, cell-based; details: OCI-Ly10, 72 h
[5] = test system: OCI-Ly10; assay: Synergistic antiproliferative activity against human OCILY10 cells harboring MYD88 L265P assessed as inhibition of cell growth at 1600 nM incubated for 72 hrs in presence of BTK inhibitor, ibrutinib at 3.1 nM by CCK-8 assay (reference value: 64.69 %); assay type: functional
[6] = test system: OCI-Ly10; assay: Induction of apoptosis in human OCILY10 cells assessed as early apoptotic cells at 0.5 uM incubated for 48 hrs by Annexin V-FITC/PI staining based flow cytometry (reference value: 5.4 %); assay type: functional
[7] = test system: OCI-Ly10; assay: Induction of apoptosis in human OCILY10 cells at 0.5 uM incubated for 48 hrs by Annexin V-FITC/PI staining based flow cytometry; assay type: functional
[8] = target: Tyrosine-protein kinase BTK (Homo sapiens) (UniProt Q06187); assay: Inhibition of BTK (unknown origin) at 100 nM incubated for 1 hr in presence of ATP by ELISA analysis
Sequence of Tyrosine-protein kinase BTK (Homo sapiens) (Q06187 whole entry): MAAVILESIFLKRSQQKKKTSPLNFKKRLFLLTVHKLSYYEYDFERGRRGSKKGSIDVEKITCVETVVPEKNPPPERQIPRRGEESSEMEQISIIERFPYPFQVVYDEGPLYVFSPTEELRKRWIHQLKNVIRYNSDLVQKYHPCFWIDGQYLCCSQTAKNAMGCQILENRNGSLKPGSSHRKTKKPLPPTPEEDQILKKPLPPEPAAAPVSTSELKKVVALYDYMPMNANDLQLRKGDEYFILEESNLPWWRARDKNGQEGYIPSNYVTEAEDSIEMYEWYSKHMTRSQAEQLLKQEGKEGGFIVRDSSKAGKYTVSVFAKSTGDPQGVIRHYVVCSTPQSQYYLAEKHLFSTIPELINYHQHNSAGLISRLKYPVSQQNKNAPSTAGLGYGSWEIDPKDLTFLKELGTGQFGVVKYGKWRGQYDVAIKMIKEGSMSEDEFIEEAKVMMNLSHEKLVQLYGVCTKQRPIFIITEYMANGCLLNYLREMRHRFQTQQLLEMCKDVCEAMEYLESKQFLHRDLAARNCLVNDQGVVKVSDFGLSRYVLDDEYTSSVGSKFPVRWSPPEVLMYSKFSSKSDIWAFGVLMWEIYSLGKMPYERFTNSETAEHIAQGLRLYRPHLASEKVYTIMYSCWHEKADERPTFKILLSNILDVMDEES

[9] = target: Platelet-derived growth factor receptor beta (Homo sapiens) (UniProt P09619); assay: Inhibition of PDGFR-beta (unknown origin) at 100 nM incubated for 1 hr in presence of ATP by ELISA analysis
Sequence of Platelet-derived growth factor receptor beta (Homo sapiens) (P09619 whole entry): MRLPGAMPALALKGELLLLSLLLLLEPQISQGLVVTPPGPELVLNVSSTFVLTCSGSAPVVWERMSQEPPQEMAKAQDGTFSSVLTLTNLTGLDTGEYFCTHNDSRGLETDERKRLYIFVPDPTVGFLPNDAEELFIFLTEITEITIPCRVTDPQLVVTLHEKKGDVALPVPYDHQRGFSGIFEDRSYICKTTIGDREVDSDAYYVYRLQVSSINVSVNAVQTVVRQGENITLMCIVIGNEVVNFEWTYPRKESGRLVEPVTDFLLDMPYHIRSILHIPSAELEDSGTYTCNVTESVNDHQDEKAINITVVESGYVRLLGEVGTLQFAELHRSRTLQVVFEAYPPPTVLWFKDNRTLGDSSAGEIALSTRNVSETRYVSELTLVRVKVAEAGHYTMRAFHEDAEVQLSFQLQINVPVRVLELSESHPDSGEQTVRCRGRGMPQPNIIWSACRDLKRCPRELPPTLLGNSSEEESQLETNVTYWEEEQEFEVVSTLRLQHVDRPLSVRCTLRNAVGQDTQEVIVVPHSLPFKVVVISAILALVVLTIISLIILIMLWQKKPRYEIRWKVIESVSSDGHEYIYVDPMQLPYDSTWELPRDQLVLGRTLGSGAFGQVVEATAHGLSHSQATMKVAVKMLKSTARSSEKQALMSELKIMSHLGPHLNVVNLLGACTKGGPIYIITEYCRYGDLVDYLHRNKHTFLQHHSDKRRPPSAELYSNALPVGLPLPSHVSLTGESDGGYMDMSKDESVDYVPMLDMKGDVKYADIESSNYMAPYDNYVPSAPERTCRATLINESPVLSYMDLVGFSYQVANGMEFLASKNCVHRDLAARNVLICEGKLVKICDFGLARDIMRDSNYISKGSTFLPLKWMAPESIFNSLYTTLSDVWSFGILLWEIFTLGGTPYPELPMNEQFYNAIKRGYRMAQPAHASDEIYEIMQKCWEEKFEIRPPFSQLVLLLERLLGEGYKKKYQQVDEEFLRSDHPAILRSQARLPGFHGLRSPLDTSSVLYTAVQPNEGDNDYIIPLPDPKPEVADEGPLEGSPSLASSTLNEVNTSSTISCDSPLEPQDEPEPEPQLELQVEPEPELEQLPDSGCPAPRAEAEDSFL

[10] = test system: OCI-Ly10; assay: Synergistic antiproliferative activity against human OCILY10 cells harboring MYD88 L265P assessed as inhibition of cell growth at 1600 nM incubated for 72 hrs in presence of BTK inhibitor, ibrutinib at 12.5 nM by CCK-8 assay (reference value: 64.69 %); assay type: functional
[11] = test system: OCI-Ly10; assay: Induction of apoptosis in human OCILY10 cells assessed as early apoptotic cells at 0.1 uM incubated for 48 hrs by Annexin V-FITC/PI staining based flow cytometry (reference value: 5.4 %); assay type: functional
[12] = test system: OCI-Ly10; assay: Induction of apoptosis in human OCILY10 cells assessed as early apoptotic cells at 1 uM incubated for 24 hrs by Annexin V-FITC/PI staining based flow cytometry (reference value: 10 %); assay type: functional
[13] = test system: OCI-Ly10; assay: Synergistic antiproliferative activity against human OCILY10 cells harboring MYD88 L265P assessed as inhibition of cell growth at 1600 nM incubated for 72 hrs in presence of BTK inhibitor, ibrutinib at 25 nM by CCK-8 assay (reference value: 64.69 %); assay type: functional
[14] = test system: OCI-Ly10; assay: Synergistic antiproliferative activity against human OCILY10 cells harboring MYD88 L265P assessed as inhibition of cell growth at 1600 nM incubated for 72 hrs in presence of BTK inhibitor, ibrutinib at 6.2 nM by CCK-8 assay (reference value: 64.69 %); assay type: functional
[15] = target: Interleukin-1 receptor-associated kinase 4 (Homo sapiens) (UniProt Q9NWZ3); assay: Inhibition of IRAK4 in human OCILY10 cells assessed as downregulation of IRAK4 phosphorylation level by immunoblotting analysis; assay type: cell-based
[16] = target: Tyrosine-protein kinase ITK/TSK (Homo sapiens) (UniProt Q08881); assay: Inhibition of ITK (unknown origin) at 100 nM incubated for 1 hr in presence of ATP by ELISA analysis
Sequence of Tyrosine-protein kinase ITK/TSK (Homo sapiens) (Q08881 whole entry): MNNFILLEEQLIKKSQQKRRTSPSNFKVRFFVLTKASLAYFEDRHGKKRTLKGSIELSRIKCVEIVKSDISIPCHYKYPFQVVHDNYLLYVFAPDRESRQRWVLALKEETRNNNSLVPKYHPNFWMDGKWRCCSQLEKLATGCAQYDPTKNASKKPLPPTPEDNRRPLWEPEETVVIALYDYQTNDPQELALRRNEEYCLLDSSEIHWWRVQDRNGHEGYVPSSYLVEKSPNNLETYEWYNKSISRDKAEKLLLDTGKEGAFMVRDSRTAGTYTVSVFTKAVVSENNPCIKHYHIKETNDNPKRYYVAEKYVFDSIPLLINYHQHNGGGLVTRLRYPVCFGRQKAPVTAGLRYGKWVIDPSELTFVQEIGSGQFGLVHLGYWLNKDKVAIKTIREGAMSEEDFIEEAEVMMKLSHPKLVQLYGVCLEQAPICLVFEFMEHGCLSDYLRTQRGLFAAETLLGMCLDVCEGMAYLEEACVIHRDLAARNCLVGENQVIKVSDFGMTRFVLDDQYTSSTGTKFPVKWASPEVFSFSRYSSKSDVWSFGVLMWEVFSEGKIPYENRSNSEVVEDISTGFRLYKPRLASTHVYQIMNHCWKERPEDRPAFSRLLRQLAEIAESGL

[17] = test system: OCI-Ly10; assay: Induction of apoptosis in human OCILY10 cells assessed as late apoptotic cells at 0.2 uM incubated for 24 hrs by Annexin V-FITC/PI staining based flow cytometry (reference value: 3.71 %); assay type: functional
[18] = test system: OCI-Ly10; assay: Synergistic antiproliferative activity against human OCILY10 cells harboring MYD88 L265P assessed as inhibition of cell growth at 200 nM incubated for 72 hrs in presence of BTK inhibitor, ibrutinib at 12.5 nM by CCK-8 assay (reference value: 26.07 %); assay type: functional
[19] = test system: OCI-Ly10; assay: Induction of apoptosis in human OCILY10 cells assessed as early apoptotic cells at 0.5 uM incubated for 24 hrs by Annexin V-FITC/PI staining based flow cytometry (reference value: 10 %); assay type: functional
[20] = target: Receptor-type tyrosine-protein kinase FLT3 (Homo sapiens) (UniProt P36888); assay: Inhibition of FLT3 (unknown origin) at 100 nM incubated for 1 hr in presence of ATP by ELISA analysis relative to control
Sequence of Receptor-type tyrosine-protein kinase FLT3 (Homo sapiens) (P36888 whole entry): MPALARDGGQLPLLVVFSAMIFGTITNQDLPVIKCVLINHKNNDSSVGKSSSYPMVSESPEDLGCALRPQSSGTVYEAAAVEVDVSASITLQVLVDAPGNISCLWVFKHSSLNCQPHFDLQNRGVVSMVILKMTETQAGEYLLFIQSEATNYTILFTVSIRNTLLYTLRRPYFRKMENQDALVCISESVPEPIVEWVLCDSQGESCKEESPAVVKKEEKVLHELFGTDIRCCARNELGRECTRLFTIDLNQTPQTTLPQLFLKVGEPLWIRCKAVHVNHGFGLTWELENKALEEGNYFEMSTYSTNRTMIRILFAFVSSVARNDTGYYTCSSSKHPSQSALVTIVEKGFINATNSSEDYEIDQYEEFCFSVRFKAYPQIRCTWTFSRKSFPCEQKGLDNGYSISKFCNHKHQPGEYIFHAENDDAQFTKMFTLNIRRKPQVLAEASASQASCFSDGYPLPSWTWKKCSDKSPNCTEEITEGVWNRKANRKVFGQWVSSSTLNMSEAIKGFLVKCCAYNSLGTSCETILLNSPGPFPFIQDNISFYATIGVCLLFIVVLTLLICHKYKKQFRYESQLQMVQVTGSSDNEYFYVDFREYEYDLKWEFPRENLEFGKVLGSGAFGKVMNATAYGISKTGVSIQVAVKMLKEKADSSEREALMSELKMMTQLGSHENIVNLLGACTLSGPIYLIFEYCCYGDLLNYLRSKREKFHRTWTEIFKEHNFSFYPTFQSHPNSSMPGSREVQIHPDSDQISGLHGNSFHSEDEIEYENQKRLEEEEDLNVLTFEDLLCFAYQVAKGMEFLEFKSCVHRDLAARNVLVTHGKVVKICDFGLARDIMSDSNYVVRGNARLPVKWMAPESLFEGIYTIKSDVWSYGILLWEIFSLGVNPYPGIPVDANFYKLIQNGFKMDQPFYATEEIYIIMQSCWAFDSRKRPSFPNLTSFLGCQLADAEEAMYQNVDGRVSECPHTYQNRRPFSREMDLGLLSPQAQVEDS

[21] = target: T1, Interleukin-1 receptor-associated kinase 4 (Homo sapiens, UniProt Q9NWZ3); assay: Inhibition of IRAK4 (unknown origin) by Z-LYTE enzymatic kinase assay
T1 sequence (Q9NWZ3 whole entry): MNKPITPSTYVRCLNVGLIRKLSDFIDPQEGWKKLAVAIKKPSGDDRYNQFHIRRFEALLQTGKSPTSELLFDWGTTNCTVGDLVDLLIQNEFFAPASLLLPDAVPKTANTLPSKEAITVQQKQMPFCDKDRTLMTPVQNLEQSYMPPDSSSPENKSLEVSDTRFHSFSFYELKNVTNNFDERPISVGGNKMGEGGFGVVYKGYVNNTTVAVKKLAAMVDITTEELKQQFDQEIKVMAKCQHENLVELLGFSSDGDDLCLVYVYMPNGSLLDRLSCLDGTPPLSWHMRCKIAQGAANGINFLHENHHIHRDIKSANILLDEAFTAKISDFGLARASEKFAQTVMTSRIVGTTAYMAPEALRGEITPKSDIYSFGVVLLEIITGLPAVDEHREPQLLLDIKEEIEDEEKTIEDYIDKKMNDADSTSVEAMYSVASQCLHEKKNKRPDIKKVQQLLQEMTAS

[22] = test system: OCI-Ly10; assay: Induction of apoptosis in human OCILY10 cells at 1 uM incubated for 24 hrs by Annexin V-FITC/PI staining based flow cytometry; assay type: functional
[23] = test system: OCI-Ly10; assay: Synergistic antiproliferative activity against human OCILY10 cells harboring MYD88 L265P assessed as inhibition of cell growth at 400 nM incubated for 72 hrs in presence of BTK inhibitor, ibrutinib at 12.5 nM by CCK-8 assay (reference value: 34.46 %); assay type: functional
[24] = test system: OCI-Ly10; assay: Synergistic antiproliferative activity against human OCILY10 cells harboring MYD88 L265P assessed as inhibition of cell growth at 200 nM incubated for 72 hrs in presence of BTK inhibitor, ibrutinib at 6.2 nM by CCK-8 assay (reference value: 26.07 %); assay type: functional
[25] = target: Macrophage colony-stimulating factor 1 receptor (Homo sapiens) (UniProt P07333); assay: Inhibition of CSF1R (unknown origin) at 100 nM incubated for 1 hr in presence of ATP by ELISA analysis
Sequence of Macrophage colony-stimulating factor 1 receptor (Homo sapiens) (P07333 whole entry): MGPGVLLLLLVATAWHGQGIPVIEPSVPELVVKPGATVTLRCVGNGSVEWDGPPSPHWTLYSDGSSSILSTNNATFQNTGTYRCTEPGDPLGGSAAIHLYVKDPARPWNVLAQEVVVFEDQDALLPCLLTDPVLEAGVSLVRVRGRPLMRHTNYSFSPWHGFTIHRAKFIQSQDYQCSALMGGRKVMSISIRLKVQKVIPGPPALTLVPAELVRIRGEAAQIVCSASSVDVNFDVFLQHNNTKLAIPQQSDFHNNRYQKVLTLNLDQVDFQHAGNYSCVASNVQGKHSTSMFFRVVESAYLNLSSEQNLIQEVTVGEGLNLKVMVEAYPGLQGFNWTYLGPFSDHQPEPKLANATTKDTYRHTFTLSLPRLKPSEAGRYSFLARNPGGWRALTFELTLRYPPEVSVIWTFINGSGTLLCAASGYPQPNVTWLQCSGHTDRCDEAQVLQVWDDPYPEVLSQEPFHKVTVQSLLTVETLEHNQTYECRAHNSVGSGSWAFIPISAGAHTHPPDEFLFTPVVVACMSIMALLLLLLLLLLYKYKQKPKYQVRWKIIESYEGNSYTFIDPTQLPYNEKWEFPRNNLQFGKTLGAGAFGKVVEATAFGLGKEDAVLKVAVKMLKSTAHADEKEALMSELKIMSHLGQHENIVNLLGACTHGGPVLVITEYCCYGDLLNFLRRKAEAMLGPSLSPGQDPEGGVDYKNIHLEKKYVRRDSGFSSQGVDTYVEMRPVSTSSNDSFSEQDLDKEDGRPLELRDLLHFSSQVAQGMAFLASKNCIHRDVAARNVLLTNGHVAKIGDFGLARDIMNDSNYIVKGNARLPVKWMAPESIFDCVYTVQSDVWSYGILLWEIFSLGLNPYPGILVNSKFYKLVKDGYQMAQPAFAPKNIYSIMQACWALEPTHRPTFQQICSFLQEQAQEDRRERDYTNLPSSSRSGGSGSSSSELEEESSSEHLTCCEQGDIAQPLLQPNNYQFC

SMILES: Cn1cc(-c2cc3c(cc2NC(=O)c2coc(-c4ccnc(N)c4)n2)CC(C)(C)O3)cn1
- inhibition at 0.2 µM [1]: 29.5%
- Activity [2]: 11.2%
- Activity [3]: 54.4%
- IC50 [4]: 248 nM
- inhibition at 1.6 µM [5]: 77.3%
- Activity [6]: 45.7%
- Activity [7]: 67.2%
- inhibition [8]: inactive
- inhibition [9]: inactive
- inhibition at 1.6 µM [10]: 88.7%
- Activity [11]: 12.9%
- Activity [12]: 36.4%
- inhibition at 1.6 µM [13]: 89.6%
- inhibition at 1.6 µM [14]: 88.6%
- inhibition [15]: Dose-Dependent Effect
- inhibition [16]: inactive
- Activity [17]: 11.8%
- inhibition at 0.2 µM [18]: 67.5%
- Activity [19]: 22.8%
- inhibition [20]: > 50%
- IC50 [21]: 8.7 nM
- Activity [22]: 66.8%
- inhibition at 0.4 µM [23]: 75.7%
- inhibition at 0.2 µM [24]: 53.8%
- inhibition [25]: inactive
